Experimental data: patent US10654834B2 (Venenum Biodesign, LLC, priority 2016, dated 2020)
pEC50: −log10 of the molar value.

How the values were obtained:
Mouse STC-1 cells = experiment: STC-1 GLP-1 assay (GLP-1 secretion); type: cell-based; conditions: Mouse STC-1 cells, GLP-1 secretion, 2 h; read-out: Mouse STC-1 HTRF GLP-1 Activity (EC50)
Procedure, shortened: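 Secreted active GLP-1 was measured by HTRF after overnight room-temperature incubation of supernatant with the conjugates. Supernatants came from a 2 h, 37° C. compound exposure (12-point half-log series) in HBSS with DPP-IV and protease inhibitors and 0.1% fatty acid free BSA. STC-1 cells had been seeded two days earlier in stripped-serum DMEM; EC50 reported.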

[1] = Pharmacokinetic profile in mice after oral gavage; type: in vivo, mouse; conditions: mouse; fasted male Hilltop mice, 10 mg/kg oral gavage, plasma; read-out: Cmax
Procedure, shortened: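 Plasma exposure (Cmax, AUC) by non-compartmental analysis of LC-MS/MS data, orbital blood taken at 0, 0.25, 0.5, 1, 2 and 4 h, each value averaging three mice. Dosing: 10 mg/kg oral gavage to overnight-fasted male Hilltop mice (8 weeks), vehicle PEG400/CMC/Tween-80.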

Compound	pEC50 (Mouse STC-1 cells)	Cmax [1]
N#Cc1ccc(CCNC(=O)[C@@H]2CCCN2c2cc(N3CCC(CCNC(=O)[C@@H](N)CS(=O)(=O)O)CC3)nc(C(F)(F)F)n2)cc1 [Compound 123, (R)-2-amino-3-((2-(1-(6-((S)-2-((4-cyanophenethyl)carbamoyl)pyrrolidin-1-yl)-2-(trifluoromethyl)pyrimidin-4-yl)piperidin-4-yl)ethyl)amino)-3-oxopropane-1-sulfonic acid]	> 7.00	1.4 ng/mL
N#Cc1ccc(CCNC(=O)[C@@H]2CCCN2c2cc(N3CCC(CCNS(=O)(=O)CCNC(=O)[C@@H](N)CS(=O)(=O)O)CC3)nc(C(F)(F)F)n2)cc1 [Compound 125, (R)-2-amino-3-((2-(N-(2-(1-(6-((S)-2-((4-cyanophenethyl)carbamoyl)-pyrrolidin-1-yl)-2-(trifluoromethyl)-pyrimidin-4-yl)piperidin-4-yl)ethyl)sulfamoyl)ethyl)amino)-3-oxopropane-1-sulfonic acid]	6.00 to 7.00	0.14 ng/mL
N#Cc1ccc(CCNC(=O)[C@@H]2CCCN2c2cc(N3CCC(CCNC(=N)N)CC3)nc(C(F)(F)F)n2)cc1 [Compound 126, (S)—N-(4-cyanophenethyl)-1-(6-(4-(2-guanidinoethyl)piperidin-1-yl)-2-(trifluoromethyl)pyrimidin-4-yl)pyrrolidine-2-carboxamide]	6.00 to 7.00	2 ng/mL
N#Cc1ccc(CCNC(=O)[C@@H]2CCCN2c2cc(N3CCC(CCCC(=O)NCCNC(=N)N)CC3)nc(C(F)(F)F)n2)cc1 [Compound 128, (S)-N-(4-cyanophenethyl)-1-(6-(4-(4-((2-guanidinoethyl)amino)-4-oxobutyl)piperidin-1-yl)-2-(trifluoromethyl)pyrimidin-4-yl)pyrrolidine-2-carboxamide]	6.00 to 7.00	670 ng/mL
N#Cc1ccc(CCNC(=O)[C@@H]2CCCN2c2cc(N3CCC(CCCC(=O)NCCCC[C@H](NC(=N)N)C(=O)O)CC3)nc(C(F)(F)F)n2)cc1 [Compound 129, (S)-6-(4-(1-(6-((S)-2-((4-cyanophenethyl)carbamoyl)pyrrolidin-1-yl)-2-(trifluoromethyl)pyrimidin-4-yl)piperidin-4-yl)butanamido)-2-guanidinohexanoic acid]	6.00 to 7.00	0.6 ng/mL
N#Cc1ccc(CCNC(=O)[C@@H]2CCCN2c2cc(N3CCC(CCNS(=O)(=O)CCNC(=N)N)CC3)nc(C(F)(F)F)n2)cc1 [Compound 130, (S)-N-(4-cyanophenethyl)-1-(6-(4-(2-(2-guanidinoethylsulfonamido)ethyl)piperidin-1-yl)-2-(trifluoromethyl)pyrimidin-4-yl)pyrrolidine-2-carboxamide]	> 7.00	2.8 ng/mL
N=C(N)N[C@@H](CCC(=O)NCCCC1CCN(c2cc(N3CCC[C@H]3C(=O)NCCc3ccc(C(F)(F)F)cc3)nc(C(F)(F)F)n2)CC1)C(=O)O [Compound 133, (S)-2-guanidino-5-oxo-5-((3-(1-(2-(trifluoromethyl)-6-((S)-2-((4-(trifluoromethyl)phenethyl)carbamoyl)pyrrolidin-1-yl)pyrimidin-4-yl)piperidin-4-yl)propyl)amino)pentanoic acid]	> 7.00	4.1 ng/mL
N#Cc1ccc(CCNC(=O)[C@@H]2CCCN2c2cc(N3CCC(OCC#CCS(=O)(=O)O)CC3)nc(C(F)(F)F)n2)cc1 [Compound 134, (S)-4-((1-(6-(2-((4-cyanophenethyl)carbamoyl)pyrrolidin-1-yl)-2-(trifluoromethyl)pyrimidin-4-yl)piperidin-4-yl)oxy)but-2-yne-1-sulfonic acid]	6.00 to 7.00	22 ng/mL
N#Cc1ccc(CCNC(=O)[C@@H]2CCCN2c2cc(N3CCC(CCCC(=O)O)CC3)cc(C(F)(F)F)n2)cc1 [Compound 197, (S)-4-(1-(2-(2-((4-cyanophenethyl)carbamoyl)pyrrolidin-1-yl)-6-(trifluoromethyl)pyridin-4-yl)piperidin-4-yl)butanoic acid]	> 7.00	143 ng/mL
N#Cc1ccc(CCNC(=O)[C@@H]2CCCN2c2cc(N3CCC(CCCC(=O)NCS(=O)(=O)O)CC3)cc(C(F)(F)F)n2)cc1 [Compound 198, (S)-(4-(1-(2-(2-((4-cyanophenethyl)carbamoyl)pyrrolidin-1-yl)-6-(trifluoromethyl)pyridin-4-yl)piperidin-4-yl)butanamido)methanesulfonic acid]	6.00 to 7.00	6.8 ng/mL
N#Cc1ccc(CCNC(=O)[C@@H]2CCCN2c2cc(N3CCC(CCCC(=O)NCCS(=O)(=O)O)CC3)cc(C(F)(F)F)n2)cc1 [Compound 199, (S)-2-(4-(1-(2-(2-((4-cyanophenethyl)carbamoyl)pyrrolidin-1-yl)-6-(trifluoromethyl)pyridin-4-yl)piperidin-4-yl)butanamido)ethanesulfonic acid]	> 7.00	1 ng/mL
N#Cc1ccc(CCNC(=O)[C@@H]2CCCN2c2cc(N3CCC(CCCC(=O)N[C@@H](CCCNC(=N)N)C(=O)N[C@@H](CCCNC(=N)N)C(=O)O)CC3)cc(C(F)(F)F)n2)cc1 [Compound 202, (S)-2-((S)-2-(4-(1-(2-((S)-2-((4-cyanophenethyl)carbamoyl)pyrrolidin-1-yl)-6-(trifluoromethyl)pyridin-4-yl)piperidin-4-yl)butanamido)-5-guanidinopentanamido)-5-guanidinopentanoic acid]	> 7.00	< 0.1 ng/mL
N#Cc1ccc(CCNC(=O)[C@@H]2CCCN2c2cc(-c3ccc(CO)cc3)cc(C(F)(F)F)n2)cc1 [Compound 204, (S)—N-(4-cyanophenethyl)-1-(4-(4-(hydroxymethyl)phenyl)-6-(trifluoromethyl)pyridin-2-yl)pyrrolidine-2-carboxamide]	6.00 to 7.00	4.4 ng/mL
N#Cc1ccc(CCNC(=O)[C@@H]2CCCN2c2cc(-c3ccc(CCC(=O)NCS(=O)(=O)O)cc3)cc(C(F)(F)F)n2)cc1 [Compound 206, (S)-(3-(4-(2-(2-((4-cyanophenethyl)carbamoyl)pyrrolidin-1-yl)-6-(trifluoromethyl)pyridin-4-yl)phenyl)propanamido)methanesulfonic acid]	6.00 to 7.00	3.8 ng/mL
N#Cc1ccc(CCNC(=O)[C@@H]2CCN2c2cc(N3CCC(CO)CC3)nc(C(F)(F)F)n2)cc1 [Compound 219, (S)—N-(4-cyanophenethyl)-1-(6-(4-(hydroxymethyl)piperidin-1-yl)-2-(trifluoromethyl)pyrimidin-4-yl)azetidine-2-carboxamide]	> 7.00	75 ng/mL
N#Cc1ccc(CCNC(=O)[C@@H]2CCN2c2cc(N3CCC(CCO)CC3)nc(C(F)(F)F)n2)cc1 [Compound 223, (S)-N-(4-cyanophenethyl)-1-(6-(4-(2-hydroxyethyl)piperidin-1-yl)-2-(trifluoromethyl)pyrimidin-4-yl)azetidine-2-carboxamide]	> 7.00	44 ng/mL
N#Cc1ccc(CCNC(=O)[C@@H]2CCN2c2cc(N3CCC(CCCC(=O)O)CC3)nc(C(F)(F)F)n2)cc1 [Compound 231, (S)-4-(1-(6-(2-((4-cyanophenethyl)carbamoyl)azetidin-1-yl)-2-(trifluoromethyl)pyrimidin-4-yl)piperidin-4-yl)butanoic acid]	6.00 to 7.00	28 ng/mL
O=C(O)CCC1CCN(c2cc(N3CC[C@H]3C(=O)NCCc3ccc(C(F)(F)F)cc3)nc(C(F)(F)F)n2)CC1 [Compound 232, (S)-3-(1-(2-(trifluoromethyl)-6-(2-((4-(trifluoromethyl)phenethyl)carbamoyl)azetidin-1-yl)pyrimidin-4-yl)piperidin-4-yl)propanoic acid]	> 7.00	64 ng/mL
COc1cc(C(F)(F)F)ccc1CCNC(=O)[C@@H]1CCN1c1cc(N2CCC(CCC(=O)O)CC2)nc(C(F)(F)F)n1 [Compound 239, (S)-3-(1-(6-(2-((2-methoxy-4-(trifluoromethyl)phenethyl)carbamoyl)azetidin-1-yl)-2-(trifluoromethyl)pyrimidin-4-yl)piperidin-4-yl)propanoic acid]	> 7.00	53 ng/mL
N#Cc1ccc(CCNC(=O)[C@@H]2CCN2c2cc(N3CCC(CCCC(=O)NCCS(=O)(=O)O)CC3)nc(C(F)(F)F)n2)cc1 [Compound 249, (S)-2-(4-(1-(6-(2-((4-cyanophenethyl)carbamoyl)azetidin-1-yl)-2-(trifluoromethyl)pyrimidin-4-yl)piperidin-4-yl)butanamido)ethanesulfonic acid]	> 7.00	3.4 ng/mL
N#Cc1ccc(CCNC(=O)[C@@H]2CCN2c2cc(N3CCC(CCCC(=O)NCS(=O)(=O)O)CC3)nc(C(F)(F)F)n2)cc1 [Compound 250, (S)-(4-(1-(6-(2-((4-cyanophenethyl)carbamoyl)azetidin-1-yl)-2-(trifluoromethyl)pyrimidin-4-yl)piperidin-4-yl)butanamido)methanesulfonic acid]	> 7.00	7.6 ng/mL
O=C(CCC1CCN(c2cc(N3CC[C@H]3C(=O)NCCc3ccc(C(F)(F)F)cc3)nc(C(F)(F)F)n2)CC1)NCS(=O)(=O)O [Compound 253, (S)-(3-(1-(2-(trifluoromethyl)-6-(2-((4-(trifluoromethyl)phenethyl)-carbamoyl)azetidin-1-yl)pyrimidin-4-yl)piperidin-4-yl)propanamido)-methanesulfonic acid]	> 7.00	48 ng/mL
COc1cc(C(F)(F)F)ccc1CCNC(=O)[C@@H]1CCN1c1cc(N2CCC(CCC(=O)NCCS(=O)(=O)O)CC2)nc(C(F)(F)F)n1 [Compound 259]	6.00 to 7.00	27 ng/mL
